Measured values published in patent US20100274022A1, “G PROTEIN-COUPLED RECEPTOR INHIBITOR AND PHARMACEUTICAL PRODUCT” (PHARMAFRONTIER CO., LTD., priority 2007, published 2010).

Target: T1, humanGPR120 (Homo sapiens, UniProt Q5NUL3)
T1 construct: expressed in transfected cells
T1 sequence (Q5NUL3 1-377 isoform Q5NUL3-1 R67C/Q274H/I297T): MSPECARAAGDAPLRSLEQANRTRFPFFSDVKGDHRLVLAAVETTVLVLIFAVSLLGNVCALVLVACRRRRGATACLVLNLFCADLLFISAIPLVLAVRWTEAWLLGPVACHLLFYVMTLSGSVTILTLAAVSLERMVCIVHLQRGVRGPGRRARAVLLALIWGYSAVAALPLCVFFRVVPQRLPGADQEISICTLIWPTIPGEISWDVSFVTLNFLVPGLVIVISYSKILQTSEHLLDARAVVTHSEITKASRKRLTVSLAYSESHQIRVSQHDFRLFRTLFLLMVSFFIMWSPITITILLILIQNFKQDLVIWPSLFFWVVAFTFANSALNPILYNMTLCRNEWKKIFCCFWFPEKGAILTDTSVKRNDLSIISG
Test: Inhibitory effect on activation (antagonistic activity): α-LA-stimulated increase in intracellular Ca2+ concentration measured by FLIPR in cells comprising GPR120
Type: cell-based

(E)-3-{3-[2-(2-nonylpyridinylamino)ethoxy]phenyl}acrylic acid [ATG-19]
antagonistic activity for GPR120 (result in words): significant antagonistic activity
